Measured values: patent US20110082133A1, “PYRIDONE COMPOUNDS” (priority 2008, published 2011)
Where a name gives a salt, the structure may show the parent alone.

Tests used:
rat EP1 receptor = biological target: T1, rat EP1 receptor (Rattus norvegicus, UniProt P70597); assay: Rat EP1 receptor agonistic/antagonistic action (intracellular Ca2+, FLIPR, HEK293 stable expression cells); format: cell-based; conditions: inhibition of intracellular Ca2+ increasing action by PGE2
T1 construct: expressed in transfected cells
T1 sequence (P70597 1-405): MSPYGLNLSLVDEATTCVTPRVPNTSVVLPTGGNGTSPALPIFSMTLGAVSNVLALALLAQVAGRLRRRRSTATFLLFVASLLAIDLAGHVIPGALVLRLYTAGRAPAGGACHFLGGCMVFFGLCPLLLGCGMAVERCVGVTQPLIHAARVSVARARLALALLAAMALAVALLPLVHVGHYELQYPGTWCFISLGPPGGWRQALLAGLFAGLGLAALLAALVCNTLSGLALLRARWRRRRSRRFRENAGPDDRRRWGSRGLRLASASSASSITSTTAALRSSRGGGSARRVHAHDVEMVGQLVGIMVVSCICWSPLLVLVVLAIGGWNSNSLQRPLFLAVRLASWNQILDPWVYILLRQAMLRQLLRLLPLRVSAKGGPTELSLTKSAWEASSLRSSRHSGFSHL
Protocol: (§1) Using rat EP1 or rat EP3β receptor stable expression cells, the intracellular Ca^2+ concentration was measured using a fluorescent imaging plate reader (FLIPR manufactured by Molecular Devices Corporation). The agonistic activity was evaluated by the intracellular Ca^2+ increasing action of the test compound, and the antagonistic activity was evaluated by the inhibiting action of the test compound on the intracellular Ca^2+ increasing action by PGE2.
(§2) The cDNA of the rat EP 1 or EP3β receptor was subcloned into an expression vector (pcDNA3.1-V5-His-topo, manufactured by Invitrogen Corporation). This expression vector was introduced into HEK293 cells (American Type Culture Collection) to prepare a rat EP1 or EP3β receptor stable expression cell line. These cells were seeded onto a 96-well poly-D-lysin treated black wall clear bottom plate (manufactured by Becton, Dickinson and Company) at 2 to 3×10^4 cell/well, and used for the experiment the next day. The measurement of the intracellular Ca^2+ concentration was carried out by an FLIPR calcium 3 assay kit (manufactured by Molecular Devices Corporation). The culture medium of each well was removed by suction and replaced with a loading buffer (Hank's balanced salt solution containing 20 mM HEPES-NaOH (pH 7.4), 2.5 mM Probenecid, 0.1% bovine serum albumin, and a color), followed by incubating at room temperature for 3 hours and loading a color. For the evaluation of the agonistic action, the change in the intracellular Ca^2+ concentration was determined from the difference in the maximum value of the intracellular Ca^2+ concentration after the addition of the test compound and the value before the addition of the test compound. For the evaluation of the antagonistic action, after incubating the test compound for 5 minutes, PGE2 was added thereto to determine the change in the intracellular Ca^2+ concentration by PGE2.
(§3) Further, NE means that the action has no significance.

rat EP3β receptor = biological target: T2, rat EP3β receptor (Rattus norvegicus, UniProt P34980); assay: Rat EP3 receptor agonistic/antagonistic action (intracellular Ca2+, FLIPR, HEK293 stable expression cells); format: cell-based; conditions: inhibition of intracellular Ca2+ increasing action by PGE2; read-out: RatEP3 Antagonistic Action IC50
T2 construct: expressed in transfected cells
T2 sequence (P34980 1-361 isoform P34980-2): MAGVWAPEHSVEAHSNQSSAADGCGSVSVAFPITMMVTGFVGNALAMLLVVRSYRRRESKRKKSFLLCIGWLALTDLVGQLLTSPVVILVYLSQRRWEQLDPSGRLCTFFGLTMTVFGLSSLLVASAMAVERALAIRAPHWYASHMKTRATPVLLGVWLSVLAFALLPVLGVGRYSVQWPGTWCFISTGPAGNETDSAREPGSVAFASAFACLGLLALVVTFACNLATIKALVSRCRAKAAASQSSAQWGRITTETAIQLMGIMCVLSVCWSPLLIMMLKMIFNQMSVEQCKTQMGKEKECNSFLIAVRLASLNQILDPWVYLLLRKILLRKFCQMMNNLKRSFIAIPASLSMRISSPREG
Protocol: as §1, §2, §3

Row | IC50 (rat EP1 receptor) [nM] | IC50 (rat EP3β receptor) [nM] | SMILES
1 | 2100 | > 10000 | CCC[C@H]1CCCN1Cc1c(Cl)cc(Cl)c(=O)n1CCc1ccc(C(=O)O)cc1 [Example 17, 4-{2-[3,5-dichloro-2-oxo-6-{[(2S)-2-propylpyrrolidin-1-yl]methyl}pyridin-1(2H)-yl]ethyl}benzoic acid trifluoroacetate]
2 | > 10000 | > 10000 | O=C(O)c1ccc(CCn2c(CNc3cccc(OC(F)(F)F)c3)c(Cl)cc(Cl)c2=O)cc1 [Example 107]
3 | 2700 | ≥ 10000 | CN(Cc1c(Cl)cc(Cl)c(=O)n1CCc1ccc(C(=O)O)cc1)c1cccc(Cl)c1 [Example 160]
4 | 1000 | > 10000 | O=C(O)c1ccc(CCn2c(CN3CCc4ccc(F)cc43)c(Cl)cc(Cl)c2=O)cc1 [Example 9, 4-(2-{3,5-dichloro-6-[(6-fluoro-2,3-dihydro-1H-indol-1-yl)methyl]-2-oxopyridin-1(21-1)-yl}ethyl)benzoic acid]
